IC50 data for 14 compounds are collected here from patent US20260083708A1, “IL-17 MODULATORS AND USES THEREOF” (NNOCARE PHARMA INC., priority 2024, published 2026).

The target in experiment [1] is T1, IL-17AA and IL-17RA (Homo sapiens, UniProt Q16552).
T1 construct: purchased Sino Biological 12047-H07B (IL-17AA); 10895-H02H (IL-17RA)
T1 sequence (Q16552 24-155): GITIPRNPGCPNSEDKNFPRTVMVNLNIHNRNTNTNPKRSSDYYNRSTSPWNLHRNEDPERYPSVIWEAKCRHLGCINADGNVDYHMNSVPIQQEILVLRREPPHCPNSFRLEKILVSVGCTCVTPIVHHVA
Nature of the experiment: Competitive inhibition of human IL-17AA and IL-17RA binding (HTRF). Conditions: recombinant IL-17AA (His-tag) and IL-17RA (hFc-tag); read-out: IC50 for Inhibiting IL-AA/IL-RA Binding. The procedure, abridged: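 His-IL-17AA (1 nM) premixed 1 h with anti-His-Tb (0.4 nM), and Fc-IL-17RA (1 nM) with anti-IgG-d2 (1 μg/mL); these are pre-mix levels. Compounds, diluted from 10 μM, preincubated 2 h RT with IL-17AA mix; IL-17RA mix then added, 20 min. 665/615 ratio vs no-compound and no-IL-17AA controls; IC50 by 4-parameter fit.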
For orientation: Time-resolved FRET reads energy transfer from a long-lived donor to a nearby acceptor.

Experiment [2] relates to IL-17AF-induced IL-17 signaling pathway. Nature of the experiment: Inhibition of IL-17AF-induced IL-17 signaling pathway. Type of experiment: cell-based. The following applies: Homo sapiens; IL-17AF used instead of IL-17AA; read-out: IC50 for Inhibiting IL-AF Signaling. The gist of the method:
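HEK293-derived HEK-Blue IL-17 cells (IL-17RA/RC, ACT1, NF-κB/AP-1-driven SEAP) preincubated 1 hour at 37° C with serially diluted compound from 10 μM, then stimulated with IL-17AF for 20 hours. SEAP read colorimetrically at 620 nm; IC50 from 4-parameter fit of % inhibition.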

Experiment [3] concerns IL-17AA-induced IL-17 signaling pathway. Nature of the experiment: Inhibition of IL-17AA-induced IL-17 signaling pathway in HEK-Blue IL-17 reporter cells (SEAP). It is filed as cell-based. Conditions: Homo sapiens; HEK-Blue IL-17 cells, IL-17AA 2.5 ng/mL, 20 hours; read-out: IC50 for Inhibiting IL-AA Signaling. The gist of the method: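 HEK-Blue IL-17 cells (HEK293 expressing human IL-17RA/RC, ACT1 and NF-κB/AP-1-driven SEAP), 10,000/well, pre-incubated with compound (serial dilution from 10 μM) for 1 h at 37 °C, then stimulated with IL-17AA at 2.5 ng/mL final for 20 h. SEAP in supernatant read with Quanti-Blue at 620 nm; IC50 by 4-parameter fit.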

Molecules are shown by their SMILES.

On to `[2H]C([2H])([2H])OCC(=O)N[C@@H](c1ncnn1CC1CC1)[C@@H](C)c1ccc(NC(=O)[C@@H](NC(=O)c2nonc2C)C(C2CC2)C2CC2)c(F)c1` [Compound 58, N-((S)-1,1-dicyclopropyl-3-((4-((1R,2S)-1-(1-(cyclopropylmethyl)-1H-1,2,4-triazol-5-yl)-1-(2-(methoxy-d3)acetamido)propan-2-yl)-2-fluorophenyl)amino)-3-oxopropan-2-yl)-4-methyl-1,2,5-oxadiazole-3-carboxamide], for which the IC50 in experiment [1] turned out to be 1.4 nM; in experiment [2], 3.8 nM; in experiment [3], 5 nM.

Consider `CCn1nccc1C(=O)N[C@H](C(=O)Nc1ccc([C@H](C)[C@@H](NC(=O)COC)c2nnc(C3CCN3C)s2)cc1F)C(C1CC1)C1CC1` (stereo partly drawn) [Compound 59, N-((2S)-1,1-dicyclopropyl-3-((2-fluoro-4-((1R,2S)-1-(2-methoxyacetamido)-1-(5-(1-methylazetidin-2-yl)-1,3,4-thiadiazol-2-yl)propan-2-yl)phenyl)amino)-3-oxopropan-2-yl)-1-ethyl-1H-pyrazole-5-carboxamide], for which the values for the IC50 in experiment [1], in experiment [2] and in experiment [3] were 235 nM, 1550 nM and 946 nM, respectively.

As to `Cc1nonc1C(=O)N[C@H](C(=O)Nc1ccc([C@H](C)[C@@H](NC(=O)COC2CC2)c2ncnn2CC2CC2)cc1F)C(C1CC1)C1CC1` [Compound 60, N-((S)-1-((4-((1R,2S)-1-(2-cyclopropoxyacetamido)-1-(1-(cyclopropylmethyl)-1H-1,2,4-triazol-5-yl)propan-2-yl)-2-fluorophenyl)amino)-3,3-dicyclopropyl-1-oxopropan-2-yl)-4-methyl-1,2,5-oxadiazole-3-carboxamide], the IC50 came out at 1.7 nM in experiment [1], 3.9 nM in experiment [2] and 3.3 nM in experiment [3].

As for `COCC(=O)N[C@@H](c1ncnn1CCN(C)C)[C@@H](C)c1ccc(NC(=O)[C@@H](NC(=O)c2nonc2C)C(C2CC2)C2CC2)c(F)c1` [Compound 61, N-((S)-1,1-dicyclopropyl-3-((4-((1R,2S)-1-(1-(2-(dimethylamino)ethyl)-1H-1,2,4-triazol-5-yl)-1-(2-methoxyacetamido)propan-2-yl)-2-fluorophenyl)amino)-3-oxopropan-2-yl)-4-methyl-1,2,5-oxadiazole-3-carboxamide], the IC50 came out at 12 nM in experiment [1], 74 nM in experiment [2] and 39 nM in experiment [3].

For `[2H]C([2H])([2H])n1nccc1C(=O)N[C@H](C(=O)Nc1ccc([C@H](C)[C@@H](NC(=O)CC)c2ncnn2CC2CC2)cc1F)C(C1CC1)C1CC1` [Compound 62, N-((S)-1,1-dicyclopropyl-3-((4-((1R,2S)-1-(1-(cyclopropylmethyl)-1H-1,2,4-triazol-5-yl)-1-propionamidopropan-2-yl)-2-fluorophenyl)amino)-3-oxopropan-2-yl)-1-(methyl-d3)-1H-pyrazole-5-carboxamide], the IC50 was determined as 2.6 nM in experiment [1], 18.4 nM in experiment [2] and 6.5 nM in experiment [3].

Consider `CCOCC(=O)N[C@@H](c1ncnn1CC1CC1)[C@@H](C)c1ccc(NC(=O)[C@@H](NC(=O)c2nonc2C)C(C2CC2)C2CC2)c(F)c1` [Compound 63, N-((S)-1,1-dicyclopropyl-3-((4-((1R,2S)-1-(1-(cyclopropylmethyl)-1H-1,2,4-triazol-5-yl)-1-(2-ethoxyacetamido)propan-2-yl)-2-fluorophenyl)amino)-3-oxopropan-2-yl)-4-methyl-1,2,5-oxadiazole-3-carboxamide], for which the IC50 came to 2.5 nM in experiment [1], 8.3 nM in experiment [2] and 4 nM in experiment [3].

With `Cc1nonc1C(=O)N[C@H](C(=O)Nc1ccc([C@H](C)[C@@H](NC(=O)COC(F)(F)F)c2ncnn2CC2CC2)cc1F)C(C1CC1)C1CC1` [Compound 64, N-((S)-1,1-dicyclopropyl-3-((4-((1R,2S)-1-(1-(cyclopropylmethyl)-1H-1,2,4-triazol-5-yl)-1-(2-(trifluoromethoxy)acetamido)propan-2-yl)-2-fluorophenyl)amino)-3-oxopropan-2-yl)-4-methyl-1,2,5-oxadiazole-3-carboxamide], the results for the IC50 in experiment [1], in experiment [2] and in experiment [3] were 1.1 nM, 5.9 nM and 3.6 nM, respectively.

On to `Cc1nonc1C(=O)N[C@H](C(=O)Nc1ccc([C@H](C)[C@@H](NC(=O)COC(F)F)c2ncnn2CC2CC2)cc1F)C(C1CC1)C1CC1` [Compound 65, N-((S)-1,1-dicyclopropyl-3-((4-((1R,2S)-1-(1-(cyclopropylmethyl)-1H-1,2,4-triazol-5-yl)-1-(2-(difluoromethoxy)acetamido)propan-2-yl)-2-fluorophenyl)amino)-3-oxopropan-2-yl)-4-methyl-1,2,5-oxadiazole-3-carboxamide], for which the values for the IC50 in experiment [1], in experiment [2] and in experiment [3] were 0.9 nM, 3.6 nM and 2.8 nM, respectively.

For `CC(=O)N[C@@H](c1ncnn1CC1CC1)[C@@H](C)c1ccc(NC(=O)[C@@H](NC(=O)c2nonc2C)C(C2CC2)C2CC2)c(F)c1` [Compound 67, N-((S)-1-((4-((1R,2S)-1-acetamido-1-(1-(cyclopropylmethyl)-1H-1,2,4-triazol-5-yl)propan-2-yl)-2-fluorophenyl)amino)-3,3-dicyclopropyl-1-oxopropan-2-yl)-4-methyl-1,2,5-oxadiazole-3-carboxamide], the IC50 worked out at 1.1 nM in experiment [1], 13 nM in experiment [2] and 8 nM in experiment [3].

Turning to `[2H]C([2H])([2H])OCC(=O)N[C@@H](c1ncnn1CC1CC1)[C@@H](C)c1ccc(NC(=O)[C@@H](NC(=O)c2ccnn2CC)C(C2CC2)C2CC2)c(F)c1` [Compound 68, N-((S)-1,1-dicyclopropyl-3-((4-((1R,2S)-1-(1-(cyclopropylmethyl)-1H-1,2,4-triazol-5-yl)-1-(2-(methoxy-d3)acetamido)propan-2-yl)-2-fluorophenyl)amino)-3-oxopropan-2-yl)-1-ethyl-1H-pyrazole-5-carboxamide], the IC50 in experiment [1] stood at 4.5 nM; in experiment [2], 6.4 nM; in experiment [3], 5.6 nM.

Take `[2H]C([2H])([2H])n1nccc1C(=O)N[C@H](C(=O)Nc1ccc([C@H](C)[C@@H](NC(=O)CO)c2ncnn2CC2CC2)cc1F)C(C1CC1)C1CC1` [Compound 69, N-((S)-1,1-dicyclopropyl-3-((4-((1R,2S)-1-(1-(cyclopropylmethyl)-1H-1,2,4-triazol-5-yl)-1-(2-hydroxyacetamido)propan-2-yl)-2-fluorophenyl)amino)-3-oxopropan-2-yl)-1-(methyl-d3)-1H-pyrazole-5-carboxamide]: the IC50 in experiment [1] was 13 nM; in experiment [2], 74 nM; in experiment [3], 42 nM.

Take `Cc1nonc1C(=O)N[C@H](C(=O)Nc1ccc([C@H](C)[C@@H](NC(=O)CC#N)c2ncnn2CC2CC2)cc1F)C(C1CC1)C1CC1` [Compound 70, N-((S)-1-((4-((1R,2S)-1-(2-cyanoacetamido)-1-(1-(cyclopropylmethyl)-1H-1,2,4-triazol-5-yl)propan-2-yl)-2-fluorophenyl)amino)-3,3-dicyclopropyl-1-oxopropan-2-yl)-4-methyl-1,2,5-oxadiazole-3-carboxamide]: the IC50 came to 3.4 nM in experiment [1], 7.3 nM in experiment [2] and 7.5 nM in experiment [3].

As for `[2H]C([2H])([2H])OCC(=O)N[C@@H](c1ncnn1CC1CC1)[C@@H](C)c1ccc(NC(=O)[C@@H](NC(=O)c2ccnn2C([2H])([2H])[2H])C(C2CC2)C2CC2)c(F)c1` [Compound 71, N-((S)-1,1-dicyclopropyl-3-((4-((1R,2S)-1-(1-(cyclopropylmethyl)-1H-1,2,4-triazol-5-yl)-1-(2-(methoxy-d3)acetamido)propan-2-yl)-2-fluorophenyl)amino)-3-oxopropan-2-yl)-1-(methyl-d3)-1H-pyrazole-5-carboxamide], the values for the IC50 in experiment [1], in experiment [2] and in experiment [3] were 5.3 nM, 13 nM and 9.6 nM, respectively.

As to `CCC(=O)N[C@@H](c1ncnn1CC1CC1)[C@@H](C)c1ccc(NC(=O)[C@@H](NC(=O)c2ccnn2CC)C(C2CC2)C2CC2)c(F)c1` [Compound 72, N-((S)-1,1-dicyclopropyl-3-((4-((1R,2S)-1-(1-(cyclopropylmethyl)-1H-1,2,4-triazol-5-yl)-1-propionamidopropan-2-yl)-2-fluorophenyl)amino)-3-oxopropan-2-yl)-1-ethyl-1H-pyrazole-5-carboxamide], the IC50 in experiment [1] was 1 nM; in experiment [2] it was 8.5 nM; in experiment [3], 1.9 nM.
